Source: patent publication US20230381121A1, “N-PALMITOYLETHANOLAMIDE AND MELATONIN FOR USE IN THE TREATMENT OF AUTISM SPECTRUM DISORDER AND OTHER NEUROBEHAVIORAL DISORDERS SIMILARLY ACCOMPANIED BY RESTLESSNESS, IRRITABILITY, SLEEP DISORDERS, AND POTENTIALLY STEREOTYPIES” (priority 2022, published 2023)
Entries after “also recorded” stand apart in the source; their conditions may differ.

What was measured:
BTBR T+tf/J (BTBR) mice [1] = assay: Social interaction test and 3-chamber social interaction test in BTBR mice; format: in vivo; conditions: melatonin 0.1 mg/kg orally for 10 days
Procedure: (§1) Furthermore, experimental tests were carried out to determine the synergy of the PEA-Melatonin-DHA combination administered orally to genetically modified BTBR T+tf/J (BTBR) mice, an animal model of neurobehavioral disorders of the ASD type.
(§2) To determine the synergy of a PEA-um, melatonin and DHA combination, a second experimentation was performed, using a different animal model useful for the study of neurobehavioral disorders, and more precisely BTBR mice. […]
(§3) The animals underwent the following behavioral tests: • The social interaction test, also known as a 3-chamber social test (FIGS. 2A, 2B and FIGS. 15A, 15B) to evaluate i) the interaction time of the animals with an unknown mouse and ii) the sociability index (ratio between the time spent by the mouse exploring the area without and with the new companion). […] In this phase of the test, parameters such as the time spent by the animal exploring i) the chambers and ii) the unfamiliar mouse were detected. • The Novel Object Recognition Test or NOR test (FIGS. 3A, 3B) to examine cognition and recognition memory by calculating the time spent by the animal exploring new objects with respect to familiar ones. […] The exploration time was counted from the moment the mice directly looked at and smelled the object at a distance of less than 2 cm. […]

BTBR T+tf/J (BTBR) mice [2] = assay: Marble Burying test in BTBR mice; format: in vivo; conditions: melatonin 0.1 mg/kg orally for 10 days, FIG. 15C
Procedure: as §1, §2, §3

[3] = system: mice in which an autistic phenotype was induced by valproic acid (VPA); assay: Thermal Nociception test (hot plate) in VPA mice; format: in vivo, C57/BL6 mice; conditions: melatonin at 1 mg/kg per os daily for 14 days, the worsening is significant, FIG. 6
Procedure: (§4) To evaluate the synergy of a combination PEA-um and melatonin, experimental tests were carried out by oral administration (gastric tube) of a mixture of um-PEA and melatonin (approximately 10:1 ratio) at a dose of 10 mg/kg for two weeks in mice in which an autistic phenotype was induced by a single injection of valproic acid in the form of sodium valproate (VPA).
(§5) Healthy male C57/BL6 mice fed ad libitum and housed in cages with controlled sleep/wake cycles were used in the first experimentation. […]
(§6) The animals underwent the following behavioral tests: • The social interaction test, also known as a 3-chamber social test (FIGS. 2A, 2B and FIGS. 15A, 15B) to evaluate i) the interaction time of the animals with an unknown mouse and ii) the sociability index (ratio between the time spent by the mouse exploring the area without and with the new companion). […] In this phase of the test, parameters such as the time spent by the animal exploring i) the chambers and ii) the unfamiliar mouse were detected. • The Novel Object Recognition Test or NOR test (FIGS. 3A, 3B) to examine cognition and recognition memory by calculating the time spent by the animal exploring new objects with respect to familiar ones. […]

[4] = system: mice in which an autistic phenotype was induced by valproic acid (VPA); assay: VPA injection model of autism: overall activity in the study; format: in vivo, C57/BL6 mice
Procedure: as §4, §5, §6

BTBR T+tf/J (BTBR) mice [5] = assay: Self Grooming test in BTBR mice; format: in vivo; conditions: melatonin 0.1 mg/kg orally for 10 days, FIG. 15D
Procedure: as §1, §2, §3

[6] = system: mice with a simil-autistic phenotype; conditions: cited from earlier work
autistic children = conditions: um-PEA 600 mg/day, 3-month treatment; cited from earlier work

Row | Structure (SMILES) | social interaction behavioral test (BTBR T+tf/J (BTBR) mice [1]; FIG. 15A) | 3-chamber social interaction test: side of the area where time is spent (BTBR T+tf/J (BTBR) mice [1]; FIG. 15B) | stereotyped repetitive behaviors (Marble Burying) (BTBR T+tf/J (BTBR) mice [2]) | VPA-induced pain insensitivity (hot plate) [3] | activity in the assessments of the VPA study (social interaction, sociability index, NOR, stereotypies, EPM) ([4]; melatonin at 1 mg/kg per os daily for 14 days, 1 mg/kg) | activity in the present study (VPA model) ([4]; melatonin at a dose of 10 mg/kg per os daily for 14 days) | stereotyped repetitive behaviors (Self Grooming) (BTBR T+tf/J (BTBR) mice [5]) | altered behavioral status [6] | expression of the pro-inflammatory hippocampal and serum cytokines IL-6, IL-1β and TNF-α [6] | adverse effects (autistic children) | aggressiveness, cognitive and behavioral skills, and communication (autistic children)
1 | COc1ccc2[nH]cc(CCNC(C)=O)c2c1 [melatonin, N-acetyl-5-methoxy tryptamine] | no improvement | continuing to spend their time in the empty side | no improvement | worsened | inactive; also recorded: never shown to be active | active | no improvement | – | – | – | –
2 | CCCCCCCCCCCCCCCC(=O)NCCO [um-PEA, Ultra-micronized palmitoylethanolamide] | – | – | – | – | – | – | – | modulating | reducing | without adverse effects | improves
